Laboratory results from paper PMC10056443, “Derivatives of Amaryllidaceae Alkaloid Ambelline as Selective Inhibitors of Hepatic Stage of Plasmodium berghei Infection In Vitro” (Pharmaceutics, 2023).
Where two headings read alike, the source gives them in different places.

Assays:
[1] = system: hepatic stage of P. berghei; test: In vitro activity against P. berghei hepatic stages (luciferase-expressing sporozoites in Huh-7 cells, bioluminescence); assay type: cell-based, Plasmodium berghei; details: Plasmodium berghei; for activity at 1 µM / activity at 10 µM: Huh-7, 48 h, DMSO = 100, read-out: INFECTION Ø screening
Experimental: Activity against the hepatic stage of P. berghei infection was assessed using the human hepatoma cell line Huh-7 (deposited at the Japanese Collection of Research Bioresources under JCRB0403). The protocol was previously comprehensively described by Prudêncio et al. and by Ploemen et al.. […] Cells were seeded in 96-well plates at a density of 1 × 10^4 cells per well in 100 µL of culture medium and incubated at 37 °C with 5% CO2 for approximately 18 h. […] The culture medium was substituted by infection medium with diluted compounds 1 hour in advance of infection. Luciferase-expressing P. berghei sporozoites (PbA-LuciGFPcon spz) were freshly obtained through the dissection of salivary glands from infected female Anopheles stephensi mosquitoes. Sporozoites were added to the cells at 1:1 ratio, i.e., 1 × 10^4 sporozoites were added per well, and then subjected to centrifugation at 1800× g for 5 min. The plate was then incubated for 46 h at 37 °C with 5% CO2, at which time Huh-7 cell confluency was indirectly assessed by the alamarBlue assay (Invitrogen, Waltham, MA, USA), as reported in the manufacturer’s protocol. Parasite load was assessed 48 h post-infection by a bioluminescence assay, as reported by the manufacturer (Biotium, Fremont, CA, USA). GraphPad Prism 8 (GraphPad Software, Inc., La Jolla, CA, USA) was used to obtain IC50 values using nonlinear regression analysis to fit the dose-response curves normalized results.

HepG2 cells = test: Cytotoxicity assessment in vitro (MTT assay); assay type: cell-based
Experimental: (§1) HepG2 cells of human hepatocellular carcinoma (ATCC HB-8065; passage 20–25), purchased from Health Protection Agency Culture Collections (ECACC, Salisbury, UK), were cultured in Minimum Essential Medium Eagle supplemented with 10% v/v fetal bovine serum and 1% v/v L-glutamine solution (Sigma-Aldrich, St. Louis, MO, USA) at 37 °C in a humidified atmosphere containing 5% CO2. For passaging, the cells were treated with trypsin/EDTA (Sigma-Aldrich, St. Louis, MO, USA) at 37 °C and then harvested. For the cytotoxicity evaluation, the cells treated with the test substances were used, while untreated HepG2 cells served as a control group. The cells were seeded in a 96-well plate at a density of 1 × 10^4 cells per well and incubated for 24 h. All tested compounds were dissolved in DMSO to prepare 10 mM stock solutions and diluted to the desired concentration just before the cell treatment. Cytotoxicity of all studied derivatives was screened at 10 μM concentration, and all samples were measured in triplicates. Positive and negative controls were also included. Plates were incubated for 24 h in a humidified atmosphere containing 5% CO2 at 37 °C. After the incubation, a solution of thiazolyl blue tetrazolium bromide (Sigma-Aldrich, St. Louis, MO, USA) in RPMI 1640 medium without phenol red (BioTech, Prague, Czech Republic) was added and incubated for 3 h in a humidified atmosphere containing 5% CO2 at 37 °C. Afterwards, formazan crystals were dissolved in DMSO, and the absorbance of samples was recorded at 570 nm (Synergy Neo2 Multi-Mode Reader NEO2SMALPHAB; BioTek, Winooski, VT, USA).

[2] = Cytotoxicity assessment in vitro (MTT assay); assay type: cell-based; details: human
Experimental: as §1

Huh-7 cell line = test: Huh-7 cell confluency by alamarBlue assay during hepatic-stage test; assay type: cell-based
Experimental: Activity against the hepatic stage of P. berghei infection was assessed using the human hepatoma cell line Huh-7 (deposited at the Japanese Collection of Research Bioresources under JCRB0403). The protocol was previously comprehensively described by Prudêncio et al. and by Ploemen et al.. Briefly, cell culture medium consisted of 1640 RPMI medium supplemented with 10% v/v fetal calf serum, 1% v/v L-glutamine, 1% v/v nonessential amino acids, 1% v/v penicillin/streptomycin, and 10 mM HEPES, pH 7. Cells were seeded in 96-well plates at a density of 1 × 10^4 cells per well in 100 µL of culture medium and incubated at 37 °C with 5% CO2 for approximately 18 h. […] The culture medium was substituted by infection medium with diluted compounds 1 hour in advance of infection. Luciferase-expressing P. berghei sporozoites (PbA-LuciGFPcon spz) were freshly obtained through the dissection of salivary glands from infected female Anopheles stephensi mosquitoes. Sporozoites were added to the cells at 1:1 ratio, i.e., 1 × 10^4 sporozoites were added per well, and then subjected to centrifugation at 1800× g for 5 min. The plate was then incubated for 46 h at 37 °C with 5% CO2, at which time Huh-7 cell confluency was indirectly assessed by the alamarBlue assay (Invitrogen, Waltham, MA, USA), as reported in the manufacturer’s protocol. Parasite load was assessed 48 h post-infection by a bioluminescence assay, as reported by the manufacturer (Biotium, Fremont, CA, USA). GraphPad Prism 8 (GraphPad Software, Inc., La Jolla, CA, USA) was used to obtain IC50 values using nonlinear regression analysis to fit the dose-response curves normalized results.

[3] = system: P. falciparum NF54 ring-stage synchronized cultures; test: In vitro activity against P. falciparum blood stages (flow cytometry, SYBR green I); assay type: cell-based, Plasmodium falciparum; details: Control = 7.76333, 48 h
Experimental: Activity against the blood stage of P. falciparum infection was assessed by flow cytometry analysis following the incubation of either test compounds or the drug vehicle (DMSO) with ring-stage synchronized parasite cultures, as previously described. Stock solutions of the test compounds, as well as of the positive control compound chloroquine, were prepared in DMSO and diluted to test concentrations in complete malaria culture medium (CMCM), i.e., 1640 RPMI medium supplemented with 25 mM HEPES, 2.4 mM L-glutamine, 50 µg/mL gentamicin, 0.5% w/v Albumax, 11 mM glucose, 1.47 mM hypoxanthine, and 37.3 mM NaHCO3. Samples at tested concentration were then incubated with ring-stage synchronized cultures of P. falciparum NF54 at 2.5% hematocrit and at approximately 1% parasitemia in 96-well plates at 37 °C in a 5% CO2 and 5% O2 atmosphere. Forty-eight hours post incubation, parasite load was assessed by flow cytometry, upon staining with the DNA-specific dye SYBR green I. Approximately 100,000 events were analyzed in each flow cytometry measurement.

[4] = Huh-7, mean, unit (Table 1: µM), read-out: Antiplasmodial activity - Ø IC50
[5] = Huh-7, replicate 1, unit (Table 1: µM), read-out: Antiplasmodial activity - IC50 determination, 1. measurement
[6] = Huh-7, replicate 2, unit (Table 1: µM), read-out: Antiplasmodial activity - IC50 determination, 2. measurement
[7] = Huh-7, replicate 3, unit (Table 1: µM), read-out: Antiplasmodial activity - IC50 determination, 3. measurement
[8] = hepatic stage, Huh-7 cells, parasite load 48 h post-infection, read-out: IC50 P. berghei

SMILES	activity at 1 µM [1] [%]	activity at 10 µM [1] [%]	IC50 [1, 4] [µM]	IC50 [1, 5] [µM]	IC50 [1, 6] [µM]	IC50 [1, 7] [µM]	IC50 [1, 8] [µM]	1. screening of cytotoxic potential, HepG2 cell line (HepG2 cells; human, 24 h, 10 µM)	2. screening of cytotoxic potential, HepG2 cell line (HepG2 cells; human, 24 h, 10 µM)	3. screening of cytotoxic potential, HepG2 cell line (HepG2 cells; human, 24 h, 10 µM)	Ø screening, HepG2 (sheet Graphs) (HepG2 cells; human, 24 h, 10 µM)	viability at 24 h, 10 µM [2] [%]	CELL CONFLUENCY Ø screening (Huh-7 cell line; human, 46 h, 1 µM, pH 7)	CELL CONFLUENCY Ø screening (Huh-7 cell line; human, 46 h, 10 µM, pH 7)	Ø screening, blood stage parasite load ([3]; at 10 nM)	Ø screening, blood stage parasite load ([3]; at 500 nM)	Ø screening, blood stage parasite load ([3]; at 100 nm)	also measured
COc1c2c(cc3c1OCO3)[C@]13C=C[C@H](OC)C[C@H]1N(C2)C[C@H]3OC(=O)c1cccc([N+](=O)[O-])c1 [28p, 11-O-(3-Nitrobenzoyl)ambelline]	48.1	1.45	1.53	1.46	1.36	1.78	1.53 ± 0.22	70.36	72.83	81.93	75.04	75 ± 6	87.05	79.58	4.593	4.517	4.83	
COc1c2c(cc3c1OCO3)[C@]13C=C[C@H](OC)C[C@H]1N(C2)C[C@H]3OC(=O)C(C)C [28c, 11-O-Isobutanoylambelline]	89.1	59.8		15.5	14.4		> 10	97.78	100.15	88.22	95.38	95 ± 6	94.69	93.64	7.643	7.21	8.26	
COc1c2c(cc3c1OCO3)[C@]13C=C[C@H](OC)C[C@H]1N(C2)C[C@H]3OC(=O)c1ccc(C)c([N+](=O)[O-])c1 [28r, 11-O-(4-Methyl-3-nitrobenzoyl)ambelline]	22.2	1.01	0.41	0.358	0.408	0.465	0.41 ± 0.054	69.43	55.1	69.8	64.78	65 ± 8	94.75	52.08	8.177	7.467	7.743	
COc1c2c(cc3c1OCO3)[C@]13C=C[C@H](OC)C[C@H]1N(C2)C[C@H]3OC(=O)c1cccc(C)c1 [28f, 11-O-(3-Methylbenzoyl)ambelline]	15.1	0.306		0.185	0.41	0.357	0.317 ± 0.118	76.64	74.3	74.27	75.07	75 ± 1	118	93.35				
COc1ccc(C(=O)O[C@@H]2CN3Cc4c(cc5c(c4OC)OCO5)[C@@]24C=C[C@H](OC)C[C@@H]34)cc1 [28k, 11-O-(4-Methoxybenzoyl)ambelline]	19.9	0.872		0.446	0.456		0.451 ± 0.007											Ø screening, HepG2 (sheet Graphs) (HepG2 cells; c = 10 μM, DMSO = 100, in %): 87.88; 1. screening of cytotoxic potential, HepG2 cell line (HepG2 cells; c = 10 μM, replicate 1, in %): 88.02; 2. screening of cytotoxic potential, HepG2 cell line (HepG2 cells; c = 10 μM, replicate 2, in %): 89.64; 3. screening of cytotoxic potential, HepG2 cell line (HepG2 cells; c = 10 μM, replicate 3, in %): 85.98; viability at 24 h, 10 µM ([2]; c = 10 µM, 24 h, MTT, read-out: HepG2 % of cell viability compared to non-treated control (100%)): 88 ± 2%; CELL CONFLUENCY Ø screening (Huh-7 cell line; at 1 μM, DMSO = 100, in % (unit assumed)): 107.6; CELL CONFLUENCY Ø screening (Huh-7 cell line; at 10 μM, DMSO = 100, in % (unit assumed)): 76.48
